According to the supplement of paper PMC10733146:

Legend:
Test in all cases: viability relative to DMSO control (fraction); higher = less drug effect (more viable cells)
Conditions in all cases: 48 h
[1] = test system: primary AML patient cells (S019)
Outline: (§1)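 Using 384-well plates with compounds already plated at five concentrations, one well per concentration, 4 × 10^4 primary mononuclear tumour cells were added per well. Cells were Ficoll-isolated from blood or bone marrow or came from processed lymph node, fresh or cryopreserved. They were kept for 48 h at 37 °C and 5% CO2 in RPMI-1640 supplemented with penicillin/streptomycin, L-glutamine and human serum, and viability was read as CellTiter-Glo luminescence relative to the median of 16 inner DMSO wells.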

[2] = test system: primary MCL patient cells (S041)
Outline: as §1

[3] = test system: primary CLL patient cells (S031)
Outline: as §1

[4] = test system: primary AML patient cells (S007)
Outline: as §1

[5] = test system: primary AML patient cells (S027)
Outline: as §1

[6] = test system: primary DLBCL patient cells (S082)
Outline: as §1

[7] = test system: primary AML patient cells (S091)
Outline: as §1

[8] = test system: primary AML patient cells (S085)
Outline: as §1

[9] = test system: primary AML patient cells (S037)
Outline: as §1

[10] = test system: primary AML patient cells (S089)
Outline: as §1

[11] = test system: primary AML patient cells (S060)
Outline: as §1

[12] = test system: primary B-PLL patient cells (S016)
Outline: as §1

[13] = test system: primary AML patient cells (S071)
Outline: as §1

[14] = test system: primary ALL patient cells (S088)
Outline: as §1

[15] = test system: primary AML patient cells (S011)
Outline: as §1

[16] = test system: primary FL patient cells (S087)
Outline: as §1

CCN1CCN(Cc2ccc(Nc3ncc(F)c(-c4cc(F)c5nc(C)n(C(C)C)c5c4)n3)nc2)CC1
viability ([1]; 0.024 µM): 1.18
viability ([1]; 0.12 µM): 0.939
viability ([1]; 0.6 µM): 1.13
viability ([1]; 3 µM): 0.232
viability ([1]; 15 µM): 0.0632
viability ([2]; 0.024 µM): 0.938
viability ([2]; 0.12 µM): 0.812
viability ([2]; 0.6 µM): 0.757
viability ([2]; 3 µM): 0.0785
viability ([2]; 15 µM): 0.00539
viability ([3]; 0.024 µM): 0.841
viability ([3]; 0.12 µM): 0.752
viability ([3]; 0.6 µM): 0.771
viability ([3]; 3 µM): 0.238
viability ([3]; 15 µM): 0.00593
viability ([4]; 0.024 µM): 0.759
viability ([4]; 0.12 µM): 0.725
viability ([4]; 0.6 µM): 0.782
viability ([4]; 3 µM): 0.668
viability ([4]; 15 µM): 0.0289
viability ([5]; 0.024 µM): 1.05
viability ([5]; 0.12 µM): 1.05
viability ([5]; 0.6 µM): 0.953
viability ([5]; 3 µM): 0.313
viability ([5]; 15 µM): 0.018
viability ([6]; 0.024 µM): 0.915
viability ([6]; 0.12 µM): 1.01
viability ([6]; 0.6 µM): 1.19
viability ([6]; 3 µM): 0.543
viability ([6]; 15 µM): 0.0123
viability ([7]; 0.024 µM): 0.77
viability ([7]; 0.12 µM): 0.939
viability ([7]; 0.6 µM): 0.849
viability ([7]; 3 µM): 0.569
viability ([7]; 15 µM): 0.333
viability ([8]; 0.024 µM): 0.895
viability ([8]; 0.12 µM): 1.01
viability ([8]; 0.6 µM): 1.22
viability ([8]; 3 µM): 0.265
viability ([8]; 15 µM): 0.0115
viability ([9]; 0.024 µM): 0.952
viability ([9]; 0.12 µM): 0.926
viability ([9]; 0.6 µM): 1.03
viability ([9]; 3 µM): 0.71
viability ([9]; 15 µM): 0.255
viability ([10]; 0.024 µM): 0.589
viability ([10]; 0.12 µM): 0.962
viability ([10]; 0.6 µM): 0.576
viability ([10]; 3 µM): 0.0472
viability ([10]; 15 µM): 0.0221
viability ([11]; 0.024 µM): 1.08
viability ([11]; 0.12 µM): 1.01
viability ([11]; 0.6 µM): 0.946
viability ([11]; 3 µM): 0.534
viability ([11]; 15 µM): 0.112
viability ([12]; 0.024 µM): 0.997
viability ([12]; 0.12 µM): 1.09
viability ([12]; 0.6 µM): 0.984
viability ([12]; 3 µM): 0.505
viability ([12]; 15 µM): 0.0112
viability ([13]; 0.024 µM): 0.728
viability ([13]; 0.12 µM): 0.533
viability ([13]; 0.6 µM): 0.39
viability ([13]; 3 µM): 0.0958
viability ([13]; 15 µM): 0.0535
viability ([14]; 0.024 µM): 0.616
viability ([14]; 0.12 µM): 0.625
viability ([14]; 0.6 µM): 0.517
viability ([14]; 3 µM): 0.169
viability ([14]; 15 µM): 0.012
viability ([15]; 0.024 µM): 1.74
viability ([15]; 0.12 µM): 1.08
viability ([15]; 0.6 µM): 1.09
viability ([15]; 3 µM): 0.0537
viability ([15]; 15 µM): 0.01
viability ([16]; 0.024 µM): 1.01
viability ([16]; 0.12 µM): 0.934
viability ([16]; 0.6 µM): 0.962
viability ([16]; 3 µM): 0.763
viability ([16]; 15 µM): 0.0109
